Measured values taken from patent US7166298B2, “Genetic immunization with cationic lipids” (Invitrogen Corporation, priority 1993, dated 2007).

What was measured:
cell lines [1] = details: certain cell lines, compared with DOTMA; cited from earlier work
cell lines [2] = details: transfection of certain cell lines, compared with DOTMA; cited from earlier work
[3] = test system: anti-CAT immune response in mice; assay: ELISA and Western blot after IP immunization with CAT plasmids with different promoters (Example 3); assay type: in vivo; details: compared with LIPOFECTACE
Experimental: A CAT enzyme-linked immunoassay (ELISA) was used to determine the presence of CAT antibodies in mouse sera samples. Microwell titer plates were prepared by incubating each well of the plate with 1 microgram/ml of CAT in 0.1 M sodium carbonate buffer, pH 9.5. The plates were incubated for 18 hours at 4ΕC. The wells were blocked with 0.2% ovalbumin dissolved in phosphate-buffered saline (PBS) with 0.1% Tween-20 (dilution buffer). Samples were diluted in the dilution buffer, and 200 microliters were added to a well on the plate. The plate was sealed, and then incubated for 60 minutes at 37 degrees C. Following a wash, the plates were incubated with 0.1 micrograms/ml goat anti-mouse IgG—horseradish peroxidase (HRP) conjugate. The plate was sealed and then incubated for 30 minutes at 37 degrees C. Following a second wash, the plates were developed with 3,3′,5,5′-tetramethylbenzidine substrate at room temperature. The reaction was stopped by adding 2N sulfuric acid.
The results were analyzed using Western Blot analysis. Nitrocellulose sheets were prepared by applying purified CAT protein to the nitrocellulose (0.1 micrograms CAT protein/cm nitrocellulose). Sera samples were diluted into dilution buffer and 2 ml were added to each nitrocellulose strip. The strips were incubated for 90 minutes with rocking at room temperature. […]

Structure (SMILES) | transfection efficiency (cell lines [1]) | toxicity (cell lines [2]) | consistency in generating an immune response (ELISA) [3]
CCCCCCCCCCCCCCCCCCN(CCCCCCCCCCCCCCCCCC)C(=O)CNC(=O)C(CCCNCCCN)NCCCN (stereo not shown) [DOGS, 5-carboxylspermylglycine dioctadecylamide] | more efficient | less toxic than DOTMA | 
CCCCCCCCC=CCCCCCCCCOCC(C[N+](C)(C)CCBr)OCCCCCCCCC=CCCCCCCCC.[Br-] (stereo not shown) [bromo lipid, 1-propanaminium, N-[2(2-bromo)ethyl]-N,N-dimethyl-2,3-bis(9-octadecenyloxy)-bromide] |  |  | more consistent results
CCCCCCCCCCCCCCCC(=O)OCC(COP(=O)(O)OCCNC(=O)C(CCCNCCCN)NCCCN)OC(=O)CCCCCCCCCCCCCCC (stereo not shown) [DPPES, dipalmitoylphosphatidylethanolamine 5-carboxyspermylamide] | more efficient | less toxic than DOTMA | 
CC(C)CCC[C@@H](C)[C@H]1CC[C@H]2[C@@H]3CC=C4C[C@@H](OC(=O)NCCN(C)C)CC[C@]4(C)[C@H]3CC[C@]12C [DC-Chol] | more efficient transfection | lower toxicity | 
